Experiments:
Recombinant human DDR1 = Recombinant human DDR1 (Homo sapiens (Human), UniProt Q08345); experiment: LanthaScreen Eu Kinase Binding Assay, DDR1; conditions: DDR1 2.5 nM (aa440-876, GST tag), Kinase Tracer 178 5 nM; for IC50: read-out: DDR1 pIC50 (converted)
Experimental: (§1) DDR1 and DDR2 Biochemical Assay Method
(§2) The capacity of compounds to bind to DDR1 and DDR2 was quantified using a LanthaScreen Eu Kinase Binding Assay. Recombinant human DDR1 (2.5 nM; aa440-876 containing a GST tag) and DDR2 (1.75 nM; aa427-855 containing a GST tag) were diluted in assay buffer (50 mM HEPES pH7.3, 10 mM MgCl2, 1 mM EGTA and 0.01% Tween) with various concentrations of compound in a 384-well plate and a volume of 5 uL. After a 30-minute incubation at room temperature, 2.5 uL of Eu-anti GST antibody (diluted to 1 nM in assay buffer) plus Kinase Tracer 178 (diluted in assay buffer to 5 nM for DDR1 and 10 nM for DDR2) were added to the plate. Following 60-minute incubation at room temperature, time-resolved fluorescence was measured on a BMG Labtech PHERAstar plate reader. DMSO (1%) and reference compound (1 μM) were used to generate the Max and Min assay signals, respectively. Data was analysed using a four-parameter logistic model to calculate IC50 values, with at least two independent replicates were performed for each compound.

Recombinant human DDR2 = Recombinant human DDR2 (Homo sapiens (Human), UniProt Q16832); experiment: LanthaScreen Eu Kinase Binding Assay, DDR2; conditions: DDR2 1.75 nM (aa427-855, GST tag), Kinase Tracer 178 10 nM; for IC50: read-out: DDR2 pIC50 (converted)
Experimental: as §1, §2

Recombinant human DDR1, sequence (Q08345 other isoform, or with tags, fused parts or gaps): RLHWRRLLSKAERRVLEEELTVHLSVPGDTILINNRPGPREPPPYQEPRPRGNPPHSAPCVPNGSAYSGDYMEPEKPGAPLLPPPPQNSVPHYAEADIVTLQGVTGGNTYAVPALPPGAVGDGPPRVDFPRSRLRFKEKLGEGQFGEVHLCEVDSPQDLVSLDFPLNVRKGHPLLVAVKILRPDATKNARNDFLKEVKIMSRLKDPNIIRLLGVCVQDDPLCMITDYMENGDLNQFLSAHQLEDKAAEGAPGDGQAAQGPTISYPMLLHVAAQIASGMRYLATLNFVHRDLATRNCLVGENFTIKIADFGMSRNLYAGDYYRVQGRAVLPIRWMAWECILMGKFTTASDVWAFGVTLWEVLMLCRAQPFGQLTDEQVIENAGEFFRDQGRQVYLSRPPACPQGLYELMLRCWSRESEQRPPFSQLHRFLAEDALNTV
Recombinant human DDR2, sequence (Q16832 427-855): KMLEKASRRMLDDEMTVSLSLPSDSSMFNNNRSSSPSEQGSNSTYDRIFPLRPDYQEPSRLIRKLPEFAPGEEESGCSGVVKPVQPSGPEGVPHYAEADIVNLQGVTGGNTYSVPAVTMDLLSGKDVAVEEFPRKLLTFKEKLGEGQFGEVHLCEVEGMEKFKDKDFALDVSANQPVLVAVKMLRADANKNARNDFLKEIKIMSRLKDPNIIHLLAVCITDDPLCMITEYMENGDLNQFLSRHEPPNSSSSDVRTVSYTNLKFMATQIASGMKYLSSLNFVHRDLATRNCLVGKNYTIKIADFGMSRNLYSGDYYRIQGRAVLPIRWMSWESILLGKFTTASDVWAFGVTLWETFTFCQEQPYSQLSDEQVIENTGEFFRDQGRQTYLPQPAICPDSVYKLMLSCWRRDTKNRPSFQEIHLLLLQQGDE

IC50 (Recombinant human DDR1) [nM] | IC50 (Recombinant human DDR2) [nM] | DDR1 pIC50 (Recombinant human DDR1) | DDR2 pIC50 (Recombinant human DDR2) | Structure (SMILES)
< 10 | 10 to 100 | – | – | Cn1ncc2cc(Nc3cccc4c3C(=O)N(CC(=O)NCC(F)(F)F)C4)ccc21 [Example 1, 2-[7-[(1-Methylindazol-5-yl)amino]-1-oxo-isoindolin-2-yl]-N-(2,2,2-trifluoroethyl) acetamide]
– | – | A (pIC50>8) | A (pIC50>8) | C[C@H](NC(=O)CN1Cc2cccc(Nc3ccc4c(cnn4C)c3)c2C1=O)C(F)(F)F [Example 2, 2-[7-[(1-Methylindazol-5-yl)amino]-1-oxo-isoindolin-2-yl]-N-[(1S)-2,2,2-trifluoro-1-methyl-ethyl]acetamide]
< 10 | < 10 | – | – | Cn1ncc2cc(Nc3cccc4c3C(=O)N(CC(=O)N3CCC[C@H]3C(F)(F)F)C4)ccc21 [Example 3, 7-[(1-Methylindazol-5-yl)amino]-2-[2-oxo-2-[(2S)-2-(trifluoromethyl)pyrrolidin-1-yl]ethyl]isoindolin-1-one]
– | – | A (pIC50>8) | A (pIC50>8) | Cn1ncc2cc(Nc3cccc4c3C(=O)N(CC(=O)Nc3cnoc3)C4)ccc21 [Example 4, N-isoxazol-4-yl-2-[7-[(1-methylindazol-5-yl)amino]-1-oxo-isoindolin-2-yl]acetamide]
– | 10 to 100 | A (pIC50>8) | – | Cn1ncc2cc(Nc3cccc4c3C(=O)N(CC(=O)Nc3cccc(C(F)(F)F)c3)C4)ccc21 [Example 5, 2-{7-[(1-methyl-1H-indazol-5-yl)amino]-1-oxo-2,3-dihydro-1H-isoindol-2-yl}-N-[3-(trifluoromethyl)phenyl]acetamide]
100 to 1000 | – | – | D (pIC50≤6) | Cn1ncc2cc(Nc3cccc4c3C(=O)N(CC(=O)NCC(F)(F)F)C4(C)C)ccc21 [Example 7, 2-[1,1-dimethyl-4-[(1-methylindazol-5-yl)amino]-3-oxo-isoindolin-2-yl]-N-(2,2,2-trifluoroethyl)acetamide]
10 to 100 | 10 to 100 | – | – | CN(c1ccc2c(cnn2C)c1)c1cccc2c1C(=O)N(CC(=O)NCC(F)(F)F)C2 [Example 8, 2-[7-[methyl-(1-methylindazol-5-yl)amino]-1-oxo-isoindolin-2-yl]-N-(2,2,2-trifluoroethyl)acetamide]
10 to 100 | 100 to 1000 | – | – | Cn1ncc2cc(Nc3cccc4c3C(=O)N(CC(=O)NCC(F)(F)F)C4)cnc21 [Example 9, 2-[7-[(1-methylpyrazolo[3,4-b]pyridin-5-yl)amino]-1-oxo-isoindolin-2-yl]-N-(2,2,2-trifluoroethyl)acetamide]
– | 10 to 100 | A (pIC50>8) | – | Cn1ncc2cc(Nc3cccc4c3C(=O)N(CC(=O)Nc3cccc(C(C)(C)O)c3)C4)ccc21 [Example 10, N-[3-(1-hydroxy-1-methyl-ethyl)phenyl]-2-[7-[(1-methylindazol-5-yl)amino]-1-oxo-isoindolin-2-yl]acetamide]
– | – | A (pIC50>8) | A (pIC50>8) | Cc1cc(Nc2cccc3c2C(=O)N(CC(=O)NCC(F)(F)F)C3)cc2cn[nH]c12 [Example 11, 2-[7-[(7-methyl-1H-indazol-5-yl)amino]-1-oxo-isoindolin-2-yl]-N-(2,2,2-trifluoroethyl)acetamide]
– | 10 to 100 | – | – | Cn1ncc2cc(Nc3cccc4c3C(=O)N(CC(=O)N3CCCC(C(F)(F)F)C3)C4)ccc21 (centres unmarked) [Example 12]
– | 10 to 100 | A (pIC50>8) | – | CN(C)Cc1ccc(NC(=O)CN2Cc3cccc(Nc4ccc5c(cnn5C)c4)c3C2=O)cc1C(F)(F)F [Example 13, N-[4-[(dimethylamino)methyl]-3-(trifluoromethyl)phenyl]-2-[7-[(1-methylindazol-5-yl)amino]-1-oxo-isoindolin-2-yl]acetamide]
< 10 | < 10 | – | – | Cn1ncc2cc(Nc3cccc4c3C(=O)N(CC(=O)N3CCCC[C@H]3C(F)(F)F)C4)ccc21 [Example 14, 7-[(1-methylindazol-5-yl)amino]-2-[2-oxo-2-[(2S)-(trifluoromethyl)-1-piperidyl]ethyl]isoindolin-1-one]
10 to 100 | 10 to 100 | – | – | CC1c2cccc(Nc3ccc4c(cnn4C)c3)c2C(=O)N1CC(=O)NCC(F)(F)F (centres unmarked) [Example 15, 2-[1-methyl-4-[(1-methylindazol-5-yl)amino]-3-oxo-isoindolin-2-yl]-N-(2,2,2-trifluoroethyl)acetamide]
< 10 | < 10 | – | – | Cn1ncc2cc(Nc3cccc4c3C(=O)N(CC(=O)N3CCC[C@H]3C(F)F)C4)ccc21 [Example 16, 2-[2-[(2S)-(difluoromethyl)pyrrolidin-1-yl]-2-oxo-ethyl]-7-[(1-methylindazol-5-yl)amino]isoindolin-1-one]
10 to 100 | 100 to 1000 | – | – | Cn1ncc2cc(Nc3cccc4c3C(=O)N(CC(=O)N3CC(C(F)(F)F)C3)C4)ccc21 [Example 18, 7-[(1-methylindazol-5-yl)amino]-2-[2-oxo-2-[3-(trifluoromethyl)73zetidine-1-yl]ethyl]isoindolin-1-one]
100 to 1000 | 100 to 1000 | – | – | Cn1ncc2cc(Nc3cccc4c3C(=O)N(CC(=O)N3CC(F)(F)C3)C4)ccc21 [Example 19, 2-[2-(3,3-difluoroazetidin-1-yl)-2-oxo-ethyl]-7-[(1-methylindazol-5-yl)amino]isoindolin-1-one]
– | 10 to 100 | A (pIC50>8) | – | CN(C)Cc1cc(NC(=O)CN2Cc3cccc(Nc4ccc5c(cnn5C)c4)c3C2=O)cc(C(F)(F)F)c1 [Example 20, N-[3-[(dimethylamino)methyl]-5-(trifluoromethyl)phenyl]-2-[7-[(1-methylindazol-5-yl)amino]-1-oxo-isoindolin-2-yl]acetamide]
– | 10 to 100 | A (pIC50>8) | – | O=C(CN1Cc2cccc(Nc3ccc4[nH]ncc4c3)c2C1=O)NCC(F)(F)F [Example 21, 2-[7-(1H-indazol-5-ylamino)-1-oxo-isoindolin-2-yl]-N-(2,2,2-trifluoroethyl)acetamide]
10 to 100 | – | – | D (pIC50≤6) | O=C(CN1Cc2cccc(Nc3cnc4[nH]ncc4c3)c2C1=O)NCC(F)(F)F [Example 22, 2-[1-oxo-7-(1H-pyrazolo[3,4-b]pyridin-5-ylamino)isoindolin-2-yl]-N-(2,2,2-trifluoroethyl)acetamide]
10 to 100 | 10 to 100 | – | – | Cn1ncc2cc(Nc3cccc4c3C(=O)N(CC(=O)Nc3cccc(C(C)(C)N)c3)C4)ccc21 [Example 23, N-[3-(1-amino-1-methyl-ethyl)phenyl]-2-[7-[(1-methylindazol-5-yl)amino]-1-oxo-isoindolin-2-yl]acetamide]
– | 10 to 100 | A (pIC50>8) | – | Cn1ncc2cc(Nc3cccc4c3C(=O)N(CC(=O)NC3CC3(F)F)C4)ccc21 (centres unmarked) [Example 24, N-(2,2-difluorocyclopropyl)-2-[7-[(1-methylindazol-5-yl)amino]-1-oxo-isoindolin-2-yl]acetamide]
10 to 100 | 10 to 100 | – | – | Cn1ncc2cc(Nc3cccc4c3C(=O)N(CC(=O)N3CCOC(C(F)(F)F)C3)C4)ccc21 (centres unmarked) [Example 26, 7-[(1-methylindazol-5-yl)amino]-2-[2-oxo-2-[2-(trifluoromethyl)morpholin-4-yl]ethyl]isoindolin-1-one]
– | – | A (pIC50>8) | A (pIC50>8) | Cn1ncc2cc(Nc3cccc4c3C(=O)N(CC(=O)NCC(F)(F)F)C4)cc(Cl)c21 [Example 27, 2-[7-[(7-chloro-1-methyl-indazol-5-yl)amino]-1-oxo-isoindolin-2-yl]-N-(2,2,2-trifluoroethyl)acetamide]
– | – | A (pIC50>8) | A (pIC50>8) | Cc1n[nH]c2cc(Nc3cccc4c3C(=O)N(CC(=O)N[C@@H](C)C(F)(F)F)C4)ccc12 [Example 28, 2-[7-[(3-methyl-1H-indazol-6-yl)amino]-1-oxo-isoindolin-2-yl]-N-[(1S)-2,2,2-trifluoro-1-methyl-ethyl]acetamide]
< 10 | < 10 | – | – | Cc1n[nH]c2cc(Nc3cccc4c3C(=O)N(CC(=O)N3CCC[C@H]3C(F)(F)F)C4)ccc12 [Example 29, 7-[(3-methyl-1H-indazol-6-yl)amino]-2-[2-oxo-2-[(2S)-(trifluoromethyl)77yrrolidine-1-yl]ethyl]isoindolin-1-one]
– | 10 to 100 | A (pIC50>8) | – | Cc1n[nH]c2cc(Nc3cccc4c3C(=O)N(CC(=O)NCC(F)(F)F)C4)cnc12 [Example 30, 2-[7-[(3-methyl-1H-pyrazolo[4,3-b]pyridin-6-yl)amino]-1-oxo-isoindolin-2-yl]-N-(2,2,2-trifluoroethyl)acetamide]
– | 10 to 100 | A (pIC50>8) | – | Cn1ncc2cc(Nc3cccc4c3C(=O)N(CC(=O)N3CCOCC3C(F)(F)F)C4)ccc21 (centres unmarked) [Example 31, 7-[(1-methylindazol-5-yl)amino]-2-[2-oxo-2-[3-(trifluoromethyl)morpholin-4-yl]ethyl]isoindolin-1-one]
10 to 100 | – | – | – | Cc1n[nH]c2cc(Nc3cccc4c3C(=O)N(CC(=O)NCC(F)(F)F)C4)cc(Cl)c12 [Example 91, 2-[7-[(4-chloro-3-methyl-1H-indazol-6-yl)amino]-1-oxo-isoindolin-2-yl]-N-(2,2,2-trifluoroethyl)acetamide]
